Results taken from patent US8962244B2, “Compounds for modulating RNA binding proteins and uses therefor” (University of Massachusetts, priority 2009, dated 2015).
Like-named read-outs stand apart in the source and are kept apart here.

Key:
POS-1 = molecular target: T1, POS-1 (Caenorhabditis elegans, UniProt G5EF15); test: Fluorescence polarization screening of POS-1 binding to fluorescein-labeled BMF018 RNA; settings: read-out: POS-1 score
T1 construct: 6-his tag (N); made in house; host or cells: E. coli BL21 (DE3) Gold
T1 sequence (G5EF15 80-180): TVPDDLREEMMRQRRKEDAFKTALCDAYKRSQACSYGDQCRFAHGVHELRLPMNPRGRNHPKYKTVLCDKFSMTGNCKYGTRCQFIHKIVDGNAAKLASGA

MEX-5 = molecular target: T2, MEX-5 (Caenorhabditis elegans, UniProt Q9XUB2); test: Fluorescence polarization screening of MEX-5 binding to fluorescein-labeled TCR2 RNA; settings: read-out: MEX-5 score
T2 construct: The fragment of mex-5 containing the TZF domain (amino acids 236-350) was amplified; made in house; host or cells: Escherichia coli JM109
T2 sequence (Q9XUB2 236-350): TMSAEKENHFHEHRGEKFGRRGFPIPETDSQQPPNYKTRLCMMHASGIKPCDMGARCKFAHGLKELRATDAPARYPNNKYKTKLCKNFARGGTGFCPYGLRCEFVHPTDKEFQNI
From the text: The expression and purification of recombinant MEX-5 protein has previously been described in Pagano, J. M., Farley, B. M., McCoig, L. M. and Ryder, S. P. (2007) “Molecular basis of RNA recognition by the embryonic polarity determinant MEX-5;” J Biol Chem; 282, 8883-8894. The fragment of mex-5 containing the TZF domain (amino acids 236-350) was amplified from a commercially available ORFeome clone (Open Biosystems) and sub-cloned into the vector pMal-c (NEB), which encodes maltose binding protein as an N-terminal fusion. This construct is termed pMal-MEX-5 (236-350).
MEX-5 is expressed in Escherchia. coli JM109 liquid cultures grown at 37° C. Cultures were induced during mid log phase by the addition of 0.1 mM isopropyl 1-thio-β-D-galactopyranoside (IPTG) and allowed to grow for three hours. An amount of 100 μM zinc acetate (final concentration) was added at the time of induction. The pelleted cells were resuspended in lysis buffer (50 mM Tris pH 8.8, 200 mM NaCl, 2 mM DTT, EDTA free protease inhibitor tablet (Roche), 100 μM Zn(OAc)2) and lysed by sonication. The soluble protein was purified in three steps using standard chromatography methods: (1) amylose affinity (NEB), (2) Hi-TRAP-Q (GE Healthcare), and (3) Hi-TRAP-S (GE Healthcare). The Q buffer was composed of 50 mM Tris, pH 8.8, 20 mM-1500 mM NaCl, 2 mM DTT, and 100 μM Zn(OAc)2. The S buffer was composed of 50 mM MOPS, pH 6.0, 20 mM-1500 mM NaCl, 2 mM DTT, 100 μM Zn(OAc)2. The pure fractions, determined by coomassie-stained SDS-PAGE, were dialyzed into storage buffer (20 mM Tris, pH 8.0, 25 mM NaCl, 100 μM Zn(OAc)2, 2 mM DTT). The protein concentration was determined by measuring absorbance at 280 nm and the calculated extinction coefficient. The protein was stored at 50 μM concentration at 4° C.
All RNA oligonucleotides were chemically synthesized by Dharmacon or Integrated DNA Technologies. Upon arrival, each RNA was deprotected and stored according to the manufacturer's instructions. Prior to use, the RNA was resuspended in 10 mM Tris-HCl, pH 8.0, 0.1 mM EDTA, and the concentration determined by UV spectrophotometry using the calculated extinction coefficient at 260 nm based on the specific sequence. The sequence of the MEX-5 binding RNA (TCR2) is […] (SEQ ID NO:1). The POS-1 binding RNA (BMF018) is […] (SEQ ID NO:2). The MEX-3 binding RNA (SEQ 14) is […] (SEQ ID NO:3).
The RNA used for the small molecule screen was labeled at the 3′-end with fluorescein by Dharmacon during synthesis. In a few cases, follow up experiments were performed with post-synthetically labeled RNA. In this case, fluorescein 5-thiosemicarbazide (FTSC, Invitrogen) was used to 3′-end label each RNA after treatment with sodium periodate (see Reines, S. A. and Cantor, C. R. (1974) “New fluorescent hydrazide reagents for the oxidized 3′-terminus of RNA” Nucleic Acids Res. 1, 767-786). A representative 50 μl reaction consisted of 0.5 nanomoles RNA, 100 mM NaOAc, pH 5.1, and 5 nanomoles NaIO4. After the reaction was complete (90 minutes at room temperature), the sample was ethanol precipitated by adding 1 μl RNase free glycogen (Invitrogen 20 μg/μl), 1/20th volume of 5 M NaCl, and 2 volumes of 100% ice-cold ethanol. The resulting pellet was resuspended in 50 μl of 100 mM NaOAc, pH 5.1 containing 1 mM FTSC and was allowed to react overnight at 4° C. in the dark. The unreacted label was removed by ethanol precipitation with resuspension of the pellet in a small volume of TE, and purification over a Roche G-25 size exclusion spin column. The labeling efficiency is determined by calculating the ratio of fluorescein absorbance at 490 nm to RNA-fluorescein absorbance at 260 nm. Typical efficiencies are 60-80%.
The ability of MEX-5 to associate with RNA was monitored by fluorescence polarization using a victor V3 or victor V2V plate reader (Perkin Elmer) in 384-well FluoTrak microplates (Grenier). […]

[1] = 192 μM test compound, score = polarization relative to no-drug and no-protein controls, 0.25 = 75% inhibition, lowest score = greatest inhibition

| Compound | remaining activity at 192 µM (POS-1; [1]) [%] | also measured |
| --- | --- | --- |
| Cc1ccc(O)c(NS(=O)(=O)c2ccc([N+](=O)[O-])cc2)c1 [CD] | 12.4 | remaining activity at 192 µM (MEX-5; [1]): 22.6% |
| COc1ccccc1C(=O)NC(=S)Nc1ccc(C(=O)O)c(Cl)c1 [BV] | 12.2 | remaining activity at 192 µM (MEX-5; [1]): 21.1% |
| CC(=O)NC(c1ccco1)c1cc([N+](=O)[O-])c2cccnc2c1O (stereo not drawn) [Y] | 6.04 | remaining activity at 192 µM (MEX-5; [1]): 6.77% |
| O=S(=O)(Nc1ccc(O)c(NS(=O)(=O)c2ccccc2)c1)c1ccccc1 [F] | -2.79 | remaining activity at 192 µM (MEX-5; [1]): -0.711% |
| Cc1sc(NC(=O)c2cnccn2)c(C(N)=O)c1C [AZ] | 25.4 | remaining activity at 192 µM (MEX-5; [1]): 14.4% |
| O=C(O)c1ccc(C2Nc3ccc([N+](=O)[O-])cc3C3c4ccccc4CC23)cc1 (stereo not drawn) [AB] | 10.9 | remaining activity at 192 µM (MEX-5; [1]): 7.3% |
| COc1cc2ccccc2cc1C(=O)NC(=S)Nc1cccc(C(=O)O)c1 [BS] | 24.3 | remaining activity at 192 µM (MEX-5; [1]): 20% |
| COc1ccc(NC(=S)c2nc3ccccc3[nH]2)cc1 [T] | 8.99 | remaining activity at 192 µM (MEX-5; [1]): 5.51% |
| CCCCN1C(=O)/C(=c2\sc3nc(-c4ccccc4OC(C)=O)nn3c2=O)c2ccccc21 [M] | 11.7 | remaining activity at 192 µM (MEX-5; [1]): 1.62% |
| O=C(Cn1cnc2ccccc2c1=O)Nc1ccc(S(=O)(=O)Nc2nccs2)cc1 [BJ] | 11.9 | remaining activity at 192 µM (MEX-5; [1]): 18.2% |
| O=S(=O)(Nc1nc(-c2ccccc2)c(-c2ccccc2)o1)c1ccc(Cl)cc1 [CO] | 16 | remaining activity at 192 µM (MEX-5; [1]): 24.1% |
| Cc1ccc(S(=O)(=O)NC(=S)NCc2cccc(Oc3ccccc3)c2)cc1 [BY] | 14.4 | remaining activity at 192 µM (MEX-5; [1]): 21.3% |
| COc1ccc(N2C(=O)NC(=O)/C(=C/c3cccc(OC(=O)c4cccs4)c3)C2=O)cc1Cl [AV] | – | remaining activity at 192 µM (POS-1): 10.9%; remaining activity at 192 µM (MEX-5): 14% |
| O=C(O)C1Nc2cc(Cl)cc(Cl)c2C2C=CCC12 (stereo not drawn) [W] | 5.39 | remaining activity at 192 µM (MEX-5; [1]): 6.4% |
| O=S(=O)(NCc1nc2ccccc2[nH]1)c1ccc(Cl)cc1 [EC] | 21.7 | – |
| O=C(Nc1cc(NC(=O)c2ccccc2)cc(C(=O)Nc2ccc(O)cc2C(=O)O)c1)c1ccccc1 [DQ] | 17.2 | – |
| Cc1ccc(NS(=O)(=O)c2ccc(F)cc2)c(NS(=O)(=O)c2ccc(F)cc2)c1 [DS] | 17.7 | – |
| Sc1nnc(-c2cc(-c3ccccc3)nc3ccccc23)o1 [EM] | 24.2 | – |
| Cc1ccc2c(Cl)c(C(=O)Nc3nnn[nH]3)sc2c1 [EL] | 23.8 | – |
| CCCCC(=O)NC(c1ccccc1Cl)c1cc([N+](=O)[O-])c2cccnc2c1O (stereo not drawn) [ET] | 26.5 | – |
| CCCC(=O)NC(c1ccc(Cl)cc1)c1cc([N+](=O)[O-])c2cccnc2c1O (stereo not drawn) [EU] | 26.6 | – |
| CCOC(=O)c1ccc(N2NC(=O)/C(=C/c3ccc(OC(=O)c4ccco4)c(OC)c3)C2=O)cc1 [DR] | 17.2 | – |
| CCOC(=O)c1ccc(N2NC(=O)/C(=C/c3ccc(OC(=O)c4cccs4)c(OC)c3)C2=O)cc1 [EW] | 27.5 | – |
| CCOC(=O)c1c(NC(=O)C2CC=CCC2C(=O)O)sc(C)c1-c1ccc(Cl)cc1 (stereo not drawn) [EA] | 20.3 | – |
| O=C(O)c1cccc(NC(=S)NC(=O)c2ccc(-c3ccc(Cl)cc3)o2)c1 [EI] | 23 | – |
| NC(=O)c1ccccc1NC(=O)CN(c1cccc(Br)c1)S(=O)(=O)c1ccccc1 [DC] | 7.5 | – |

| Compound | remaining activity at 192 µM (POS-1; [1]) [%] | also measured |
| --- | --- | --- |
| CCc1nnc(NS(=O)(=O)c2ccc(NCc3cc(Cl)cc(Cl)c3O)cc2)s1 [DH] | 11.9 | – |
| O=C(O)c1ccc(NC(=S)NC(=O)c2sc3ccccc3c2Cl)cc1 [CY] | 4.35 | – |
| O=C(NC1CCCCCC1)c1ccc(I)cc1 [CW] | 3.98 | – |
| O=C(NC(=S)Nc1ccccc1C(=O)O)c1ccc(-c2ccc(Cl)cc2)o1 [EO] | 25.4 | – |
| Cc1ccc(S(=O)(=O)NCc2nc3ccccc3[nH]2)cc1 [DY] | 20 | – |
| Oc1ccccc1-c1n[nH]c(=S)n1Cc1ccccc1 [ES] | 26.5 | – |
| O=C(NC(=S)Nc1ccc(Cl)c(C(=O)O)c1)c1ccc(-c2ccccc2)cc1 [EH] | 23 | – |
| COc1c(Cl)cc(Cl)cc1C(=O)NC(=S)Nc1ccc(C(=O)O)cc1 [EQ] | 26 | – |
| COc1cc(/C=C2/C(=O)N(c3ccc(Cl)c(C(=O)O)c3)N=C2C)ccc1OC(=O)c1cccs1 [DF] | 10.1 | – |
| O=S(=O)(Nc1ccc(S(=O)(=O)Nc2nccs2)cc1)c1ccc(Br)cc1 [CZ] | 4.89 | – |
| CC(=O)Nc1nc2ccc(S(=O)(=O)NC(C)=O)cc2s1 [ED] | 22 | – |
| CCOc1ccc(C(=O)NC(=S)Nc2ccccc2C(=O)O)cc1Br [DO] | 16.7 | – |
| O=C(NC(=S)Nc1ccc(C(=O)O)c(Cl)c1)c1ccc(Cl)c(Cl)c1 [DZ] | 20.1 | – |
| CCOc1ccc(C(=O)NC(=S)Nc2ccc(C(=O)O)c(Cl)c2)cc1Br [DK] | 14.3 | – |
| CCOc1cc(/C=C2\C(=O)N(c3ccc(C(=O)O)cc3)N=C2C)ccc1OC(=O)c1cccs1 [EE] | 22.5 | – |
| CC(C)(C)c1ccc(C(=O)Nc2ccc(S(=O)(=O)Nc3nccs3)cc2)cc1Br [EV] | 27.5 | – |
| Cc1cc(NS(=O)(=O)c2ccc(Nc3nc(-c4ccc(F)c(C)c4)cs3)cc2)no1 [EN] | 24.7 | – |
| C#CCSc1nc2sc3c(c2c(=O)n1C)CCC3 [EB] | 21 | – |
| Cc1cc(OCC(=O)Nc2ccc(S(=O)(=O)Nc3nccs3)cc2)ccc1Br [DT] | 17.7 | – |
| Cc1cc(NS(=O)(=O)c2ccc(NC(=O)c3ccc(C(C)(C)C)c(Br)c3)cc2)no1 [DP] | 16.8 | – |
| COc1ccc(S(=O)(=O)Nc2ccc(C)cc2NS(=O)(=O)c2ccc(OC)cc2)cc1 [DI] | 11.9 | – |
| COc1cc(-c2n[nH]c(=S)[nH]2)cc(OC)c1OC [DU] | 18 | – |
| O=C(O)c1ccc(Cl)c(NC(=S)NC(=O)c2cc(I)ccc2Cl)c1 [EJ] | 23.4 | – |
| CCCCOc1cccc(C(=O)Nc2ccc(S(=O)(=O)Nc3nnc(CC)s3)cc2)c1 [EP] | 26 | – |
| O=C1NN(c2ccc(F)c(Cl)c2)C(=O)/C1=C\c1cccc(OC(=O)c2cccs2)c1 [CX] | 4.3 | – |
| CCOC(=O)c1ccc(N2NC(=O)/C(=C/c3cccc(OC(=O)c4cccs4)c3)C2=O)cc1 [DL] | 14.3 | – |
